In article PMC6315376 (Cell Reports, 2019):
Each block holds one compound with its values, some of them ahead of it.

Legend:
AAK1 [1] = target: T1, AAK1 (Homo sapiens, UniProt Q2M2I8); experiment: biochemical; format: binding
Target sequence in this assay (Q2M2I8 31-396): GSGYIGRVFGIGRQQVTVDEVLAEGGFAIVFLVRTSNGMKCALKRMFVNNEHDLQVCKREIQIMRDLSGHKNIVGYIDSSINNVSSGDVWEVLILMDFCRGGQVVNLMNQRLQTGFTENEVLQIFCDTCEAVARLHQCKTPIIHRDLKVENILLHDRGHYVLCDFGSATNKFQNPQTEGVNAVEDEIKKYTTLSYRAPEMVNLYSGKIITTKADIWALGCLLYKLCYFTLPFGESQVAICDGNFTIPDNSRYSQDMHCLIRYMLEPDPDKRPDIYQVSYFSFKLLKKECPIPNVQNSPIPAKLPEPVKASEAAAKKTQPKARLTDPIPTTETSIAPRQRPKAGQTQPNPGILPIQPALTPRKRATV

PIP5K1C = PIP5K1C (Homo sapiens, UniProt O60331); experiment: PIP5K1C enzyme assay, ADP-Glo format; format: biochemical
AAK1 [2] = target: T1, AAK1; experiment: biochemical; conditions: IC50 for inhibition of AAK1 enzymatic activity, 46 μM ATP (at Km)
Target sequence in this assay (Q2M2I8 27-365): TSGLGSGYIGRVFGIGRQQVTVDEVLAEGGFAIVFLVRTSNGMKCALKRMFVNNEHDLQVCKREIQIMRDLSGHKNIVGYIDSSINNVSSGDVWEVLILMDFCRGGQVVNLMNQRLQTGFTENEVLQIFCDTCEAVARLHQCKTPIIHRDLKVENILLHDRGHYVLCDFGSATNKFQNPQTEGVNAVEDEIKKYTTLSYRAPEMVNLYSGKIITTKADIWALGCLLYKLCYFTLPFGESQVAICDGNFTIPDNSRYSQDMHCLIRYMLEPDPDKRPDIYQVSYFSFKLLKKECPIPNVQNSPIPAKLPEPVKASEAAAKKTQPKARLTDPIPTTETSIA

phospho-AP2M1 (T156) = experiment: Western blot of phospho-AP2M1; format: cell-based, human; conditions: HT1080 cells, 1 μM, without WNT3A
phospho-AP2M1 (Thr156) = experiment: Western blot of phospho-AP2M1; format: cell-based, human; conditions: HEK293T cells, 2 hr, concentration-dependent
LRP6 surface levels = experiment: LRP6 surface staining by flow cytometry in HEK293T cells; format: cell-based, human; conditions: co-treatment with WNT3A, 8 hr
LRP6 = experiment: Western blot of endogenous LRP6 in HEK293T cells overexpressing AAK1; format: cell-based, human; conditions: FLAG-AAK1 overexpression, 100 nm, 6 hr
[3] = test system: β-catenin-activated Firefly luciferase reporter (BAR); experiment: BAR luciferase reporter assay in HT1080-B/R stable cells; format: cell-based, human; conditions: AAK1 siRNA 56 hr, then treatment 16 hr

Sequence of PIP5K1C (O60331 whole entry): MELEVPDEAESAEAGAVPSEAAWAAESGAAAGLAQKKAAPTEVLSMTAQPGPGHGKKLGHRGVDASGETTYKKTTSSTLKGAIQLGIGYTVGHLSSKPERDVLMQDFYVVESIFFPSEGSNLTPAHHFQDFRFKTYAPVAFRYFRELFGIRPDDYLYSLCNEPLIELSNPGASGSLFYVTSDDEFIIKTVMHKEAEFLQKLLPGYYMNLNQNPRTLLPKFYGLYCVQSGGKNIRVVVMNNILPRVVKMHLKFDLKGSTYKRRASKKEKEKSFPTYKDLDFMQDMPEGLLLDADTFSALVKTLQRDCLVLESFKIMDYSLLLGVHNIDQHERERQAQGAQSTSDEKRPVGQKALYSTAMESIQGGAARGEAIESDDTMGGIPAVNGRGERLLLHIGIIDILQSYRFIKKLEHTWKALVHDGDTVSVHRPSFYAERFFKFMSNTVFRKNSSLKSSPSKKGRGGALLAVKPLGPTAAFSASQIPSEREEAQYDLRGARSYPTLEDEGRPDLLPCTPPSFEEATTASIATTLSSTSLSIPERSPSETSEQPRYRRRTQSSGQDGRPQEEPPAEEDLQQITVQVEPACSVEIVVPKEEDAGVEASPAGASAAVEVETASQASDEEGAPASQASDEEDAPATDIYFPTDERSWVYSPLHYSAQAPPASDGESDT

- Ki (AAK1 [1]): 2000 nM
- IC50 (PIP5K1C): 3600 nM
- IC50 (AAK1 [2]): > 1000 nM
SMILES: CC(C)C(=O)Nc1n[nH]c2cc(-c3cccc(NS(=O)(=O)C4CC4)c3)ccc12 [34A, N-(6-(3-(cyclopropanesulfonamido)phenyl)-1H-indazol-3-yl)isobutyramide]

SMILES: Cc1c[nH]c(-c2cnc(NCCNc3ccc(C#N)cn3)nc2-c2ccc(Cl)cc2Cl)n1 [CHIR99021]
- pAP2M1 levels (phospho-AP2M1 (T156)): did not result in elevated pAP2M1 levels

SMILES: CCN(CC)S(=O)(=O)Nc1cccc(-c2ccc3c(NC(=O)C4CC4)n[nH]c3c2)c1 [SGC-AAK1-1, N-(6-(3-((N,N-diethylsulfamoyl)amino)phenyl)-1H-indazol-3-yl)cyclopropanecarboxamide]
- phosphorylation of the AP2M1 subunit at Thr156 (phospho-AP2M1 (Thr156)): inhibited the phosphorylation of the AP2M1 subunit at Thr156
- rescue of the WNT3A-induced decrease of LRP6 surface levels (LRP6 surface levels): rescued

SMILES: CO/C1=C\C(C)=C\[C@@H](C)[C@@H](O)[C@@H](C)C/C(C)=C/C=C/[C@H](OC)[C@@H]([C@@H](C)[C@@H](O)[C@H](C)[C@@]2(O)C[C@@H](O)[C@H](C)[C@@H](C(C)C)O2)OC1=O [bafilomycin A1]
- AAK1-driven downregulation of LRP6 (LRP6): rescued AAK1-driven downregulation of LRP6

SMILES: CN(C)CCCN1c2ccccc2Sc2ccc(Cl)cc21 [chlorpromazine]
- WNT signaling (BAR) induced by AAK1 silencing [3]: suppressed WNT signaling induced by AAK1 silencing
